Data from US6737383B1, “Herbicidal oxadiazolidines” (priority 1999, dated 2004).

Key:
[1] = test system: corn; assay: Test B pre/postemergence corn; assay type: in vivo, Zea mays
How it was run: (§1)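 Herbicidal effect was estimated by eye on a ten-point control scale after plants spent twelve to sixteen days in a greenhouse following soil or foliar treatment. Foliar sprays targeted plants at one to four leaves; all doses were formulated in a non-phytotoxic solvent with surfactant.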

[2] = test system: blackgrass; assay: Test B pre/postemergence blackgrass; assay type: in vivo, Alopecurus myosuroides
How it was run: as §1

[3] = test system: soybean; assay: Test B pre/postemergence soybean; assay type: in vivo, Glycine max
How it was run: as §1

[4] = test system: rape; assay: Test B pre/postemergence rape; assay type: in vivo, Brassica napus
How it was run: as §1

[5] = test system: duck salad; assay: Test B flood test duck salad; assay type: in vivo, Heteranthera limosa
How it was run: (§2)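 Read-out is a visual response score from 0 (no effect) to 10 (complete control), assigned by comparison with untreated controls. Treatment was applied at the 2-leaf stage, and plants stayed in the greenhouse for twelve to sixteen days before scoring.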

[6] = test system: sugar beet; assay: Test B pre/postemergence sugar beet; assay type: in vivo, Beta vulgaris
How it was run: as §1

[7] = test system: giant foxtail; assay: Test B pre/postemergence giant foxtail; assay type: in vivo, Setaria faberii
How it was run: as §1

[8] = test system: velvetleaf; assay: Test B pre/postemergence velvetleaf; assay type: in vivo, Abutilon theophrasti
How it was run: as §1

[9] = test system: wild oat; assay: Test B pre/postemergence wild oat; assay type: in vivo, Avena fatua
How it was run: as §1

[10] = test system: rice; assay: Test B flood test rice; assay type: in vivo, Oryza sativa
How it was run: as §2

[11] = test system: cocklebur; assay: Test B pre/postemergence cocklebur; assay type: in vivo, Xanthium strumarium
How it was run: as §1

[12] = test system: pigweed; assay: Test B pre/postemergence pigweed; assay type: in vivo, Amaranthus retroflexus
How it was run: as §1

[13] = test system: smallflower flatsedge; assay: Test B flood test smallflower flatsedge; assay type: in vivo, Cyperus difformis
How it was run: as §2

[14] = test system: morningglory; assay: Test B pre/postemergence morningglory; assay type: in vivo, Ipomoea hederacea
How it was run: as §1

[15] = test system: wheat; assay: Test B pre/postemergence wheat; assay type: in vivo, Triticum aestivum
How it was run: as §1

[16] = test system: surinam grass; assay: Test B pre/postemergence surinam grass; assay type: in vivo, Brachiaria decumbens
How it was run: as §1

[17] = Postemergence, Rate 250 g/ha, scale 0 to 10
[18] = Postemergence, Rate 500 g/ha, scale of 0 to 10 where 0 is no effect and 10 is complete control
[19] = Preemergence, Rate 62 g/ha, scale 0 to 10 (0 no effect, 10 complete control)
[20] = Preemergence, Rate 125 g/ha, scale of 0 to 10 where 0 is no effect and 10 is complete control
[21] = Preemergence, Rate 250 g/ha, scale 0 to 10, 0 is no effect, 10 is complete control
[22] = Preemergence, Rate 500 g/ha, scale 0 to 10, 0 is no effect, 10 is complete control
[23] = Rate 62 g/ha, Postemergence, scale of 0 to 10 where 0 is no effect and 10 is complete control
[24] = Rate 125 g/ha, Postemergence, scale 0 to 10, 0 is no effect, 10 is complete control
[25] = Postemergence block (flood test species), Rate 250 g/ha, scale 0 to 10
[26] = Postemergence section (flood test species), Rate 500 g/ha, scale of 0 to 10 where 0 is no effect and 10 is complete control
[27] = Rate 62 g/ha, Postemergence (flood test species), scale of 0 to 10 where 0 is no effect and 10 is complete control
[28] = Rate 125 g/ha, Postemergence section (flood test species), scale 0 to 10, 0 is no effect, 10 is complete control
[29] = Postemergence, Rate 250 g/ha, scale 0 to 10, 0 no effect, 10 complete control

CC(C)N(C(=O)n1oc(=O)n(C(C)C#N)c1=O)c1ccc(F)cc1F (centres unmarked) [Compound 432]
Corn plant response rating [1, 17]: 0 | Corn plant response rating [1, 18]: 0 | Plant response rating, Corn [1, 19]: 0 | Plant response rating, Corn [1, 20]: 0 | Corn plant response rating [1, 21]: 0 | Corn plant response rating [1, 22]: 0 | Corn plant response rating [1, 23]: 0 | Corn plant response rating [1, 24]: 0 | Blackgrass plant response rating [2, 17]: 4 | Blackgrass plant response rating [2, 18]: 4 | Plant response rating, Blackgrass [2, 19]: 0 | Plant response rating, Blackgrass [2, 20]: 0 | Blackgrass plant response rating [2, 21]: 0 | Blackgrass plant response rating [2, 22]: 2 | Blackgrass plant response rating [2, 23]: 0 | Blackgrass plant response rating [2, 24]: 2 | Soybean plant response rating [3, 17]: 2 | Soybean plant response rating [3, 18]: 2 | Plant response rating, Soybean [3, 19]: 0 | Plant response rating, Soybean [3, 20]: 0 | Soybean plant response rating [3, 21]: 0 | Soybean plant response rating [3, 22]: 0 | Soybean plant response rating [3, 24]: 1 | Rape plant response rating [4, 17]: 0 | Rape plant response rating [4, 18]: 0 | Plant response rating, Rape [4, 19]: 0 | Plant response rating, Rape [4, 20]: 0 | Rape plant response rating [4, 21]: 0 | Rape plant response rating [4, 22]: 0 | Rape plant response rating [4, 24]: 0 | Ducksalad plant response rating [5, 25]: 0 | Ducksalad plant response rating [5, 26]: 0 | Ducksalad plant response rating [5, 27]: 0 | Ducksalad plant response rating [5, 28]: 0 | Sugarbeets plant response rating [6, 17]: 0 | Sugarbeets plant response rating [6, 18]: 0 | Plant response rating, Sugarbeets [6, 19]: 0 | Plant response rating, Sugarbeets [6, 20]: 0 | Sugarbeets plant response rating [6, 21]: 0 | Sugarbeets plant response rating [6, 22]: 0 | Sugarbeets plant response rating [6, 24]: 0 | Giant foxtail plant response rating [7, 17]: 6 | Giant foxtail plant response rating [7, 18]: 8 | Plant response rating, Giant foxtail [7, 19]: 0 | Plant response rating, Giant foxtail [7, 20]: 2 | Giant foxtail plant response rating [7, 21]: 6 | Giant foxtail plant response rating [7, 22]: 9 | Giant foxtail plant response rating [7, 23]: 0 | Giant foxtail plant response rating [7, 24]: 3 | Velvetleaf plant response rating [8, 17]: 0 | Velvetleaf plant response rating [8, 18]: 2 | Plant response rating, Velvetleaf [8, 19]: 0 | Plant response rating, Velvetleaf [8, 20]: 0 | Velvetleaf plant response rating [8, 21]: 0 | Velvetleaf plant response rating [8, 22]: 0 | Velvetleaf plant response rating [8, 24]: 0 | Wild oats plant response rating [9, 17]: 0 | Wild oats plant response rating [9, 18]: 3 | Plant response rating, Wild oats [9, 19]: 0 | Plant response rating, Wild oats [9, 20]: 0 | Wild oats plant response rating [9, 21]: 0 | Wild oats plant response rating [9, 22]: 0 | Wild oats plant response rating [9, 24]: 0 | Rice plant response rating [10, 25]: 0 | Rice plant response rating [10, 26]: 0 | Rice plant response rating [10, 28]: 0 | Cocklebur plant response rating [11, 17]: 0 | Cocklebur plant response rating [11, 18]: 0 | Plant response rating, Cocklebur [11, 19]: 0 | Plant response rating, Cocklebur [11, 20]: 0 | Cocklebur plant response rating [11, 21]: 0 | Cocklebur plant response rating [11, 22]: 0 | Cocklebur plant response rating [11, 23]: 0 | Cocklebur plant response rating [11, 24]: 0 | Redroot pigweed plant response rating [12, 17]: 0 | Redroot pigweed plant response rating [12, 18]: 0 | Plant response rating, Redroot pigweed [12, 19]: 0 | Plant response rating, Redroot pigweed [12, 20]: 0 | Redroot pigweed plant response rating [12, 21]: 0 | Redroot pigweed plant response rating [12, 22]: 0 | Redroot pigweed plant response rating [12, 24]: 0 | S. Flatsedge plant response rating [13, 25]: 0 | S. Flatsedge plant response rating [13, 26]: 0 | S. Flatsedge plant response rating [13, 28]: 0 | Morningglory plant response rating [14, 17]: 1 | Morningglory plant response rating [14, 18]: 2 | Plant response rating, Morningglory [14, 19]: 0 | Plant response rating, Morningglory [14, 20]: 0 | Morningglory plant response rating [14, 21]: 0 | Morningglory plant response rating [14, 22]: 0 | Morningglory plant response rating [14, 24]: 1 | Wheat plant response rating [15, 17]: 0 | Wheat plant response rating [15, 18]: 0 | Plant response rating, Wheat [15, 19]: 0 | Plant response rating, Wheat [15, 20]: 0 | Wheat plant response rating [15, 21]: 0 | Wheat plant response rating [15, 22]: 0 | Wheat plant response rating [15, 24]: 0 | B. signalgrass plant response rating [16, 29]: 0 | B. signalgrass plant response rating [16, 18]: 0 | Plant response rating, B. signalgrass [16, 19]: 0 | Plant response rating, B. signalgrass [16, 20]: 0 | B. signalgrass plant response rating [16, 21]: 0 | B. signalgrass plant response rating [16, 22]: 0 | B. signalgrass plant response rating [16, 23]: 0 | B. signalgrass plant response rating [16, 24]: 0

CC(C)N(C(=O)n1oc(=O)n(CC#N)c1=O)c1ccccc1 [Compound 434]
Corn plant response rating [1, 17]: 0 | Corn plant response rating [1, 18]: 0 | Plant response rating, Corn [1, 19]: 0 | Plant response rating, Corn [1, 20]: 0 | Corn plant response rating [1, 21]: 0 | Corn plant response rating [1, 22]: 0 | Corn plant response rating [1, 23]: 0 | Corn plant response rating [1, 24]: 0 | Blackgrass plant response rating [2, 17]: 0 | Blackgrass plant response rating [2, 18]: 0 | Plant response rating, Blackgrass [2, 19]: 0 | Plant response rating, Blackgrass [2, 20]: 0 | Blackgrass plant response rating [2, 21]: 0 | Blackgrass plant response rating [2, 22]: 0 | Blackgrass plant response rating [2, 23]: 0 | Blackgrass plant response rating [2, 24]: 0 | Soybean plant response rating [3, 17]: 1 | Soybean plant response rating [3, 18]: 1 | Plant response rating, Soybean [3, 19]: 0 | Plant response rating, Soybean [3, 20]: 0 | Soybean plant response rating [3, 21]: 0 | Soybean plant response rating [3, 22]: 0 | Soybean plant response rating [3, 24]: 0 | Rape plant response rating [4, 17]: 0 | Rape plant response rating [4, 18]: 0 | Plant response rating, Rape [4, 19]: 0 | Plant response rating, Rape [4, 20]: 0 | Rape plant response rating [4, 21]: 0 | Rape plant response rating [4, 22]: 0 | Rape plant response rating [4, 24]: 0 | Ducksalad plant response rating [5, 25]: 0 | Ducksalad plant response rating [5, 26]: 0 | Ducksalad plant response rating [5, 27]: 0 | Ducksalad plant response rating [5, 28]: 0 | Sugarbeets plant response rating [6, 17]: 0 | Sugarbeets plant response rating [6, 18]: 0 | Plant response rating, Sugarbeets [6, 19]: 0 | Plant response rating, Sugarbeets [6, 20]: 0 | Sugarbeets plant response rating [6, 21]: 0 | Sugarbeets plant response rating [6, 22]: 0 | Sugarbeets plant response rating [6, 24]: 0 | Giant foxtail plant response rating [7, 17]: 1 | Giant foxtail plant response rating [7, 18]: 4 | Plant response rating, Giant foxtail [7, 19]: 0 | Plant response rating, Giant foxtail [7, 20]: 0 | Giant foxtail plant response rating [7, 21]: 0 | Giant foxtail plant response rating [7, 22]: 2 | Giant foxtail plant response rating [7, 23]: 0 | Giant foxtail plant response rating [7, 24]: 0 | Velvetleaf plant response rating [8, 17]: 0 | Velvetleaf plant response rating [8, 18]: 0 | Plant response rating, Velvetleaf [8, 19]: 0 | Plant response rating, Velvetleaf [8, 20]: 0 | Velvetleaf plant response rating [8, 21]: 0 | Velvetleaf plant response rating [8, 22]: 0 | Velvetleaf plant response rating [8, 24]: 0 | Wild oats plant response rating [9, 17]: 0 | Wild oats plant response rating [9, 18]: 0 | Plant response rating, Wild oats [9, 19]: 0 | Plant response rating, Wild oats [9, 20]: 0 | Wild oats plant response rating [9, 21]: 0 | Wild oats plant response rating [9, 22]: 0 | Wild oats plant response rating [9, 24]: 0 | Rice plant response rating [10, 25]: 0 | Rice plant response rating [10, 26]: 0 | Rice plant response rating [10, 28]: 0 | Cocklebur plant response rating [11, 17]: 0 | Cocklebur plant response rating [11, 18]: 0 | Plant response rating, Cocklebur [11, 19]: 0 | Plant response rating, Cocklebur [11, 20]: 0 | Cocklebur plant response rating [11, 21]: 0 | Cocklebur plant response rating [11, 22]: 0 | Cocklebur plant response rating [11, 23]: 0 | Cocklebur plant response rating [11, 24]: 0 | Redroot pigweed plant response rating [12, 17]: 0 | Redroot pigweed plant response rating [12, 18]: 0 | Plant response rating, Redroot pigweed [12, 19]: 0 | Plant response rating, Redroot pigweed [12, 20]: 0 | Redroot pigweed plant response rating [12, 21]: 0 | Redroot pigweed plant response rating [12, 22]: 4 | Redroot pigweed plant response rating [12, 24]: 0 | S. Flatsedge plant response rating [13, 25]: 0 | S. Flatsedge plant response rating [13, 26]: 0 | S. Flatsedge plant response rating [13, 28]: 0 | Morningglory plant response rating [14, 17]: 1 | Morningglory plant response rating [14, 18]: 1 | Plant response rating, Morningglory [14, 19]: 0 | Plant response rating, Morningglory [14, 20]: 0 | Morningglory plant response rating [14, 21]: 0 | Morningglory plant response rating [14, 22]: 0 | Morningglory plant response rating [14, 24]: 0 | Wheat plant response rating [15, 17]: 0 | Wheat plant response rating [15, 18]: 0 | Plant response rating, Wheat [15, 19]: 0 | Plant response rating, Wheat [15, 20]: 0 | Wheat plant response rating [15, 21]: 0 | Wheat plant response rating [15, 22]: 0 | Wheat plant response rating [15, 24]: 0 | B. signalgrass plant response rating [16, 29]: 0 | B. signalgrass plant response rating [16, 18]: 0 | Plant response rating, B. signalgrass [16, 19]: 0 | Plant response rating, B. signalgrass [16, 20]: 0 | B. signalgrass plant response rating [16, 21]: 0 | B. signalgrass plant response rating [16, 22]: 0 | B. signalgrass plant response rating [16, 23]: 0 | B. signalgrass plant response rating [16, 24]: 0
